4 molecules from PMC8173608, “Probing the Catalytic Mechanism and Inhibition of SAMHD1 Using the Differential Properties of Rp- and Sp-dNTPαS Diastereomers” (Biochemistry, 2021) can be followed below.

Usually Ki stands for a measure of affinity in units of concentration, obtained from inhibition or displacement. Low readings indicate a stronger hold on the target, high ones a looser hold on the target.

The experiment deals with T1, SAMHD1 (Homo sapiens, UniProt Q9Y3Z3).
T1 construct: wt-SAMHD1(1–626)
Description: coupled enzyme assay (Ppx1/MDCC-PBP), competitive inhibition of TTP hydrolysis. It counts as biochemical.

T1 sequence (Q9Y3Z3 whole entry): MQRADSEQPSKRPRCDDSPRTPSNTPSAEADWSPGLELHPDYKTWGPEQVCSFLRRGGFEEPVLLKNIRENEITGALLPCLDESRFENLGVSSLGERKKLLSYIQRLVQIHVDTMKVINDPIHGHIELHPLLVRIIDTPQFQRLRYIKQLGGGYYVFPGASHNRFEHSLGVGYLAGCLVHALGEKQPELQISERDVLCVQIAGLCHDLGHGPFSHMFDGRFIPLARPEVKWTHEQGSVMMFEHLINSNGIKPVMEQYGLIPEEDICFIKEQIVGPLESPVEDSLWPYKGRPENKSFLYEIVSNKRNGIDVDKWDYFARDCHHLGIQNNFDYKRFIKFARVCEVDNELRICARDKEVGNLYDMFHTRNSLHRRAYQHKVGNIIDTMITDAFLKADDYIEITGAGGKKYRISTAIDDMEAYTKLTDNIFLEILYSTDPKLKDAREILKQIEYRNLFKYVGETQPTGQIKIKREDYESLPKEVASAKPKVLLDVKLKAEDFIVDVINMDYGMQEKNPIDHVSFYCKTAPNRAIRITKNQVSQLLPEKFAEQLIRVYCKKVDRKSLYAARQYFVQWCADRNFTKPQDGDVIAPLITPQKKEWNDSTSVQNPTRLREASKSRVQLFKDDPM

In turn, `Nc1ccn([C@H]2C[C@H](O)[C@@H](CO[P@](O)(=S)OP(=O)(O)OP(=O)(O)O)O2)c(=O)n1` [Sp-dCTPαS] had a Ki of 6.3 ± 0.4 µM.

On to `Cc1cn([C@H]2C[C@H](O)[C@@H](CO[P@](O)(=S)OP(=O)(O)OP(=O)(O)O)O2)c(=O)[nH]c1=O` [Sp-TTPαS], for which the Ki was 46 ± 2 µM. As for `Nc1nc2c(ncn2[C@H]2C[C@H](O)[C@@H](CO[P@](O)(=S)OP(=O)(O)OP(=O)(O)O)O2)c(=O)[nH]1` [Sp-dGTPαS], the Ki came to 0.82 ± 0.05 µM. On to `Nc1ncnc2c1ncn2[C@H]1C[C@H](O)[C@@H](CO[P@](O)(=S)OP(=O)(O)OP(=O)(O)O)O1` [Sp-dATPαS], for which the affinity, expressed as Ki, was 117 ± 7 µM.
